# According to paper PMC10675597, “Design, Synthesis, and Antisickling Investigation of a Thiazolidine Prodrug of TD-7 That Prolongs the Duration of Action of Antisickling Aromatic Aldehyde” (Pharmaceutics, 2023):
# Tests used:
# [1] = molecular target: T1, Hb in human normal whole blood (Homo sapiens, UniProt P69905); experiment: In-vitro time-dependent Hb modification (Hb adduct formation), cation-exchange HPLC; type: cell-based; conditions: 2 mM; for %Hb Modification (Hb Adduct): normal whole blood 30% hematocrit
# T1 construct: normal whole blood (AA) was collected from adult donors; from tissue; host or cells: normal (AA) human whole blood from adult donors, 30% hematocrit
# Experimental: Pro-7 and the control TD-7 were used to conduct time-dependent Hb modification (Hb adduct formation) studies using normal whole blood as previously reported. A 200 mM stock solution of each compound was made with DMSO. In a 96-well 1.2 mL polypropylene deep-well plate (Thermo Scientific, Hampshire, UK), 2.0 mM concentration of each compound was added to 600 μL of whole blood (30% hematocrit), which was then incubated at 37 °C for 24 h with shaking (at 140 rpm). A control sample was supplemented only with an equivalent volume of DMSO. At different time points (0–24 h), 50 μL aliquots of this mixture were withdrawn from each well using a multichannel pipette and added to respective tubes containing 50 μL of sodium cyanoborohydride (NaBH3CN) and sodium borohydride (NaBH4) mixture (1:1 v/v 50 mM stock) to terminate the Schiff-base reaction, fix the Schiff-base Hb adducts and reduce the free reactive aldehyde. After mixing, the tubes were stored immediately at −80 °C until ready for analysis using cation-exchange HPLC (Hitachi D-7000 Series, Hitachi Instruments, Inc. San Jose, CA, USA) for Hb-compound adduct formation. The observed Hb adducts in %Hb modification were plotted as a function of time (h).
# (§1) Human normal whole blood was used to assess the degree of Hb modification and Hb oxygen affinity (P50 shift), while sickle blood was used to investigate RBC sickling inhibition. Pro-7 and the positive control TD-7 were incubated with normal whole blood suspensions. […] For the sickling inhibition study, Pro-7 and the positive control TD-7 were incubated with SS blood suspensions under hypoxic conditions (2.5% O2/97.5% N2), and aliquot blood samples were drawn at three time points (1, 3 and 6 h) and used for assessing RBC morphology. The results summarized in Table 1 and Figure 4A–C show time-dependent effects for all three pharmacodynamic activities. […] Even at the end of the 24-h experiment, Pro-7 activity was still increasing.
# [2] = molecular target: T1, Hb in human normal whole blood; experiment: In-vitro time-dependent oxygen equilibrium study (P50 shift); type: cell-based; conditions: 2 mM; for %Hb O2 Affinity (P50 Shift): normal whole blood 30% hematocrit
# Experimental: An oxygen equilibrium curve study was conducted in a time-dependent manner to determine the effect and duration of Pro-7 on Hb affinity for oxygen (P50 shift) following standard procedure. Pro-7, along with the controls TD-7 and DMSO were used for the studies with normal whole blood sample (30% hematocrit). Each compound was incubated with the blood at a final concentration of 2 mM, and aliquot samples were taken at 1, 3, 6, 12 and 24 h and further incubated in IL 237 tonometer (Instrumentation Laboratories, Inc., Lexington, MA, USA) for 10 min at 37 °C, and allowed to equilibrate at oxygen tensions 6, 20, and 40 mmHg. The samples were then aspirated into a Radiometer ABL 800 Automated Blood Gas Analyzer (Copenhagen, Denmark ) to determine the pH, partial pressure of CO2 (pCO2), partial pressure of oxygen (pO2), and Hb oxygen saturation values (SO2). The measured values of pO2 (mmHg) and SO2 at each pO2 value were then subjected to a non-linear regression analysis using the program Scientist (Micromath, Salt Lake City, UT, USA) to estimate P50 as a measure of Hb oxygen affinity as previously reported.
# as §1
# [3] = test system: SS cells (homozygous sickle cell blood); experiment: In-vitro time-dependent RBC sickling inhibition under hypoxia; type: cell-based, human; conditions: 2 mM; for inhibition at 2000 µM: Homo sapiens, SS cells 20% hematocrit, hypoxia (4% oxygen/96% nitrogen)
# Experimental: Red blood cell sickling inhibition studies with Pro-7 and the control TD-7 was conducted using previously reported procedure. Blood suspensions from subjects with homozygous SCD (hematocrit 20%) were incubated under air in the absence or presence of test compounds at 37 °C for 1 h to ensure that binding has attained equilibrium. […] Aliquot samples were fixed with 2% glutaraldehyde solution without exposure to air, and then subjected to microscopic morphological analysis.
# Human normal whole blood was used to assess the degree of Hb modification and Hb oxygen affinity (P50 shift), while sickle blood was used to investigate RBC sickling inhibition. […] The results summarized in Table 1 and Figure 4A–C show time-dependent effects for all three pharmacodynamic activities. […] Even at the end of the 24-h experiment, Pro-7 activity was still increasing.
# [4] = In-vitro stability in different pH buffers (aldehyde peak absorbance at 349 nm); type: physicochemical; conditions: for Stability (absorbance of aldehyde peak at 349 nm): 1 mM, 37 °C
# Experimental: The stability of Pro-7 and the control TD-7 in different pH buffers (PBS buffer at pH 7.4, KCl·HCl buffer at pH 2.0, and Tris buffer at pH 8.0) was evaluated over time as previously reported. The ionic strength of all buffers was kept constant at 150 mM. A 200 mM stock solution of each compound was prepared using anhydrous DMSO. 1 mM solutions of each of the test compounds TD-7 and Pro-7 were prepared in duplicate for each of the three different pH buffers. […]
# An in-vitro time-dependent (1–96 h) stability study of Pro-7 was conducted to inform the formulation of the prodrug. The study was conducted at three different pHs: 2.0, 7.4 and 8.0, which mimic stomach, blood and intestinal pH conditions, respectively. The presence of TD-7 or the rate of appearance of TD-7 upon dissociation of Pro-7 was monitored at 349 nm spectrophotometrically.
# T1 sequence (P69905 2-142 limits assumed): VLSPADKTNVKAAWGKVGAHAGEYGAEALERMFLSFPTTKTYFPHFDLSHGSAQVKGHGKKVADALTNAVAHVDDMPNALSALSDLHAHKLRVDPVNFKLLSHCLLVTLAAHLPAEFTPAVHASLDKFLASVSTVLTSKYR
# T1 sequence (P68871 2-147 partner limits assumed): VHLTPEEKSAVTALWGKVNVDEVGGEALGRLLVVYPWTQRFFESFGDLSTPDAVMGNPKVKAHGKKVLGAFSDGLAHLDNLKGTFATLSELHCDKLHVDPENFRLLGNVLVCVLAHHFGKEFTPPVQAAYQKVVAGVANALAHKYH
compound,measurement,setting,value
"COc1ccc(OCc2cccc(CO)n2)c(C=O)c1 [TD-7, 2-((6-(hydroxymethyl)pyridin-2-yl)methoxy)-5-methoxybenzaldehyde]",%Hb Modification (Hb Adduct),[1]; 0 h,0.00 ± 0.00%
same,"time of peak effect, Hb modification",[1]; normal whole blood,12 h
same,%Hb Modification (Hb Adduct),[1]; 1 h,25.20 ± 1.20%
same,%Hb Modification (Hb Adduct),[1]; 2 h,23.40 ± 3.50%
same,%Hb Modification (Hb Adduct),[1]; 4 h,41.70 ± 4.30%
same,%Hb Modification (Hb Adduct),[1]; 8 h,47.30 ± 4.70%
same,%Hb Modification (Hb Adduct),[1]; 12 h,48.30 ± 0.50%
same,%Hb Modification (Hb Adduct),[1]; 24 h,43.30 ± 1.90%
same,"time of peak effect, Hb oxygen affinity",[2]; normal whole blood,peaked quickly at the first hour
same,%Hb O2 Affinity (P50 Shift),[2]; 1 h,69.26%
same,%Hb O2 Affinity (P50 Shift),[2]; 3 h,67.42%
same,%Hb O2 Affinity (P50 Shift),[2]; 6 h,49.06%
same,%Hb O2 Affinity (P50 Shift),[2]; 12 h,49.58%
same,%Hb O2 Affinity (P50 Shift),[2]; 24 h,48.56%
same,"time of peak effect, RBC sickling inhibition","[3]; SS blood, hypoxia",peaked quickly at the first hour
same,inhibition at 2000 µM,[3]; 1 h,76.3%
same,inhibition at 2000 µM,[3]; 3 h,59.6%
same,inhibition at 2000 µM,[3]; 6 h,54%
same,Stability (absorbance of aldehyde peak at 349 nm),"[4]; pH 2.0, 0 hr",3.23 ± 0.08
same,stability in buffer (in words),"[4]; pH 2.0, 7.4 and 8.0, 96 h experiment",showed stability at all three pHs
same,Stability (absorbance of aldehyde peak at 349 nm),"[4]; pH 2.0, 1 hr",3.02 ± 0.00
same,Stability (absorbance of aldehyde peak at 349 nm),"[4]; pH 2.0, 2 hr",3.03 ± 0.04
same,Stability (absorbance of aldehyde peak at 349 nm),"[4]; pH 2.0, 3 hr",2.97 ± 0.04
same,Stability (absorbance of aldehyde peak at 349 nm),"[4]; pH 2.0, 6 hr",2.98 ± 0.01
same,Stability (absorbance of aldehyde peak at 349 nm),"[4]; pH 2.0, 24 hr",2.93 ± 0.01
same,Stability (absorbance of aldehyde peak at 349 nm),"[4]; pH 7.4, 0 hr",3.05 ± 0.10
same,Stability (absorbance of aldehyde peak at 349 nm),"[4]; pH 7.4, 1 hr",2.97 ± 0.01
same,Stability (absorbance of aldehyde peak at 349 nm),"[4]; pH 7.4, 2 hr",2.95 ± 0.03
same,Stability (absorbance of aldehyde peak at 349 nm),"[4]; pH 7.4, 3 hr",3.09 ± 0.06
same,Stability (absorbance of aldehyde peak at 349 nm),"[4]; pH 7.4, 6 hr",2.92 ± 0.02
same,Stability (absorbance of aldehyde peak at 349 nm),"[4]; pH 7.4, 24 hr",2.98 ± 0.07
same,Stability (absorbance of aldehyde peak at 349 nm),"[4]; pH 7.4, 28 hr",2.90 ± 0.04
same,Stability (absorbance of aldehyde peak at 349 nm),"[4]; pH 7.4, 48 hr",3.00 ± 0.05
same,Stability (absorbance of aldehyde peak at 349 nm),"[4]; pH 7.4, 56 hr",2.98 ± 0.08
same,Stability (absorbance of aldehyde peak at 349 nm),"[4]; pH 7.4, 72 hr",2.92 ± 0.05
same,Stability (absorbance of aldehyde peak at 349 nm),"[4]; pH 7.4, 96 hr",2.95 ± 0.03
same,Stability (absorbance of aldehyde peak at 349 nm),"[4]; pH 8.0, 0 hr",1.82 ± 0.05
same,Stability (absorbance of aldehyde peak at 349 nm),"[4]; pH 8.0, 1 hr",1.79 ± 0.00
same,Stability (absorbance of aldehyde peak at 349 nm),"[4]; pH 8.0, 2 hr",1.73 ± 0.01
same,Stability (absorbance of aldehyde peak at 349 nm),"[4]; pH 8.0, 3 hr",1.73 ± 0.01
same,Stability (absorbance of aldehyde peak at 349 nm),"[4]; pH 8.0, 6 hr",1.71 ± 0.01
same,Stability (absorbance of aldehyde peak at 349 nm),"[4]; pH 8.0, 24 hr",1.73 ± 0.02
same,Stability (absorbance of aldehyde peak at 349 nm),"[4]; pH 8.0, 28 hr",1.70 ± 0.02
same,Stability (absorbance of aldehyde peak at 349 nm),"[4]; pH 8.0, 48 hr",1.68 ± 0.03
same,Stability (absorbance of aldehyde peak at 349 nm),"[4]; pH 8.0, 72 hr",1.73 ± 0.03
same,Stability (absorbance of aldehyde peak at 349 nm),"[4]; pH 8.0, 96 hr",1.68 ± 0.04
